Here are results for one molecule from patent publication US20220378681A1, “SKIN CARE FORMULATION WITH LIPOPHILIC PEPTIDES” (DECIEM BEAUTY GROUP INC., priority 2019, published 2022).

The data set is described as follows: Solubility of SYM3D in oils. It counts as physicochemical. As for the experimental part: Phase B may be prepared by adding MCT oil into a mixing vessel, and incorporating further ingredients such as one or more oil-soluble active ingredients. The ingredients are mixed at room temperature at a speed of 3000 RPM, with side sweep scraping at 15 RPM. Samples should be taken via the valve at the bottom of the kettle and tested by centrifugation, and the solution also visibly inspected to ensure complete incorporation of the second ingredient. Centrifugation of a sample of the mixture is an optional step to ensure complete dissolution of the second ingredient.
Amounts of SYM3D that would be effective in the invented formulation range from 0.1 to 1% by weight of the overall formulation. The specific amount used by the inventors in a sample formulation was 0.5%. SYM3D is selectively soluble in certain oils. […] It is therefore important to include an oil component such as MCT oil which is compatible with SYM3D if it is being used.

Structures are written as SMILES.

As for `CCCc1cc(OC)c2c(c1)C(C)C(c1ccc(O)c(OC)c1)O2` (centres unmarked) [SYM3D, dihydrodehydrodiisoeugenol], the “solubility in MCT oil” value (MCT oil, room temperature, 3000 RPM mixing) is recorded as “can be solubilized”. Moreover, under “squalane”, the solubility in squalane result is on record as “not soluble”.
